According to US11957696B2 (Propella Therapeutics, Inc., priority 2021, dated 2024):

Columns and labels:
[1] = Abiraterone plasma exposure from abiraterone decanoate formulations with and without benzyl benzoate; assay type: in vivo; details: corn oil 70%, benzyl alcohol 10%, benzyl benzoate 20% compared with corn oil 90%, same dose, monkeys
Text: In some embodiments, the abiraterone prodrug formulation can comprise a combination of benzyl alcohol and benzyl benzoate as cosolvents. In some embodiments, the benzyl alcohol can be present in an amount of about 0-20% (e.g., 0-15% or 0-10%, such as about 10%) of the solvent, and benzyl benzoate can be present in an amount of about 0-50% (e.g., 0-35% or 0-30%, such as about 20%) of the solvent, wherein the balance of the solvent can be any one or more of the pharmaceutically acceptable oil described herein, such as corn oil, castor oil, sesame oil, peanut oil, cottonseed oil, and/or Miglyol 812, etc.

ACTH = ACTH analysis (plasma) in 13-week study; assay type: in vivo, cynomolgus monkeys
Experimental: Sample Collection for ACTH Analysis (Plasma): Blood samples (approximately 2.5 mL) were collected from all animals via the femoral vein for determination of the plasma concentrations of ACTH. The animals were fasted prior to blood collection except one deviation.

[2] = Toxicokinetics of abiraterone decanoate and abiraterone in 13-week study; assay type: in vivo, cynomolgus monkeys; details: for AUC(0-t) / Cmax: male, cynomolgus monkey, in vivo, im; for AUC(0-t): Abiraterone Decanoate plasma AUC0-[…] (mean); for Cmax: Abiraterone Decanoate plasma Cmax (mean)
Experimental: Toxicokinetic parameters were obtained for each animal on Days 1, 29, and 71. […] A single 144-hour sample was collected outside of the allowable window for timed collections from one Animal on Day 29 and the actual time for this time point was used in the toxicokinetic data analysis. Nominal time was used for graphic representation and concentration table generation. For each animal, the following toxicokinetic parameters were determined: maximum observed plasma concentration (Cmax), time of maximum observed plasma concentration (Tmax), and area under the plasma concentration-time curve (AUC).

CYP17A1 = target: T1, CYP17A1 (Macaca fascicularis, UniProt Q2XVA1); assay: PD (progesterone, cortisol, dihydrotestosterone, testosterone levels) in chemically castrated monkeys; assay type: in vivo, cynomolgus monkeys
T1 construct: endogenous in cells; host or cells: live male cynomolgus monkeys (in vivo; steroidogenic tissues)
T1 sequence (Q2XVA1 1-508): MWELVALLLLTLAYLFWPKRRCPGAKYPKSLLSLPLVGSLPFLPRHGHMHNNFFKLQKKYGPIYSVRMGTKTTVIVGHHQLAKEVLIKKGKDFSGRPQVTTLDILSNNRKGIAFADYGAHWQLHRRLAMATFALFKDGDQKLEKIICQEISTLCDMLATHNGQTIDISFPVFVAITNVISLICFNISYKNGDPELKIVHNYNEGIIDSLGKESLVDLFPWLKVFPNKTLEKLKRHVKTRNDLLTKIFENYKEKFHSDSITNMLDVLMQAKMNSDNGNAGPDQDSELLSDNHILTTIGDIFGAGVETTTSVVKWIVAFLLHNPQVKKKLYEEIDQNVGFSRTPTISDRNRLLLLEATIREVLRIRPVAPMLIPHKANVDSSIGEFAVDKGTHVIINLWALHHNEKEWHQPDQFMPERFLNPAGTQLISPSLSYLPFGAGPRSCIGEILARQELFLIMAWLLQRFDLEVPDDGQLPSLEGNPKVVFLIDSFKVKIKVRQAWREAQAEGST
Text: The effects of administering dexamethasone and methylprednisolone acetate according to the schedule of this Example were also shown in FIGS. 5A, 5B, 5C, and 5D.

[3] = DVS water uptake of abiraterone decanoate forms; assay type: physicochemical; details: Forms A, B, and C
[4] = PK of single IM abiraterone decanoate in chemically castrated monkeys (abiraterone plasma); assay type: in vivo, cynomolgus monkeys; details: single IM 10 mg/kg
CYP17 = target: T2, CYP17 (Rattus norvegicus, UniProt P11715); assay: Serum steroid levels after single IV or IM injection in tissue uptake study; assay type: in vivo, strain CD [Crl:CD(SD)]; details: rats
T2 construct: endogenous in cells; host or cells: live CD [Crl:CD(SD)] rats (in vivo)
T2 sequence (P11715 1-507): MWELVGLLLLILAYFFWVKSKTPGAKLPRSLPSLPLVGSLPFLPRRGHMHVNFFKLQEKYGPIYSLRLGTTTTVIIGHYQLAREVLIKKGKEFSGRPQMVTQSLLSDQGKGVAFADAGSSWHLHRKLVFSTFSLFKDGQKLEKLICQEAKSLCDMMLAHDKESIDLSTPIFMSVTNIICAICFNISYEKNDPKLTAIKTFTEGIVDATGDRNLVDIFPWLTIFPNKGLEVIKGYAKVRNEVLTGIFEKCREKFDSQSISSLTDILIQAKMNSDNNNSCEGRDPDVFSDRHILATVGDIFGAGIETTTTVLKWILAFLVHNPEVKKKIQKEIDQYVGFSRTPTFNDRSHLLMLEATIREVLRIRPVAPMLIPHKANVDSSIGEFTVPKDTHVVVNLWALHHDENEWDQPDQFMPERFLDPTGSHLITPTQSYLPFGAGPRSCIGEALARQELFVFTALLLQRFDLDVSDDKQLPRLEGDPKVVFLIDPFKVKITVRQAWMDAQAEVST
Text: Vehicle for IM injection: Corn oil with 10% benzyl alcohol (w/v) and 20% benzyl benzoate (w/v). The study followed the protocols described below.
For serum steroid analysis, blood samples were collected from animals in each study group at predose and at terminal necropsy according to the following protocol. Animals were designated for 72 hr and 168 hr necropsy, the animals will be fasted overnight before scheduled blood collections. Plasma samples will be used for ACTH level analysis. Serum samples will be used for LH level analysis and steroid level analysis. Plasma samples will also be collected at various time points and be analyzed for abiraterone decanoate and abiraterone. Representative samples of tissues will be collected and snap frozen and analyzed. Lung, Liver, Adrenal glands, Prostate, Testes (Sample 1 and 2) and lymph nodes tissues will be collected. Lymph node(s) draining administration site(s): Inguinal (Groups 1-4) and Iliac (Groups 1 and 3 only). Lymph node, mandibular and Lymph node mesenteric tissues will also be collected.

[5] = single intramuscular dose (90 mg/kg)

Compound: CCCCCCCCCC(=O)O[C@H]1CC[C@@]2(C)C(=CC[C@@H]3[C@@H]2CC[C@]2(C)C(c4cccnc4)=CC[C@@H]32)C1 [Abiraterone Decanoate, abiraterone decanoate]
- abiraterone plasma exposure [1]: much higher abiraterone plasma exposure
- ACTH fold change of treated group mean relative to pretreatment (Day −1) mean (ACTH; 20 mg/kg/dose, Day 8): 1.72×
- ACTH fold change of treated group mean relative to pretreatment (Day −1) mean (ACTH; 20 mg/kg/dose, Day 15): 2.63×
- ACTH fold change of treated group mean relative to pretreatment (Day −1) mean (ACTH; 20 mg/kg/dose, Day 78): 2.30×*
- ACTH fold change of treated group mean relative to pretreatment (Day −1) mean (ACTH; 20 mg/kg/dose, Day 85): 1.89×*
- ACTH fold change of treated group mean relative to pretreatment (Day −1) mean (ACTH; 60 mg/kg/dose, Day 8): 2.55×*
- ACTH fold change of treated group mean relative to pretreatment (Day −1) mean (ACTH; 60 mg/kg/dose, Day 15): 2.35×*
- ACTH fold change of treated group mean relative to pretreatment (Day −1) mean (ACTH; 60 mg/kg/dose, Day 78): 1.33×*
- ACTH fold change of treated group mean relative to pretreatment (Day −1) mean (ACTH; 60 mg/kg/dose, Day 85): 1.36×*
- ACTH fold change of treated group mean relative to pretreatment (Day −1) mean (ACTH; 200 mg/kg/dose, Day 8): 4.90×*
- ACTH fold change of treated group mean relative to pretreatment (Day −1) mean (ACTH; 200 mg/kg/dose, Day 15): 5.14×*
- ACTH fold change of treated group mean relative to pretreatment (Day −1) mean (ACTH; 200 mg/kg/dose, Day 78): 4.65×*
- ACTH fold change of treated group mean relative to pretreatment (Day −1) mean (ACTH; 200 mg/kg/dose, Day 85): 4.66×*
- ACTH concentrations (ACTH; males at ≥20 mg/kg/dose): increases
- plasma exposures to abiraterone (Cmax and AUC) compared with oral abiraterone acetate toxicology studies ([2]; IM administration, cynomolgus monkeys): lower than levels achieved in toxicology studies with abiraterone acetate
- AUC(0-t) ([2]; 20 mg/kg): 888 ng·h/mL
- AUC(0-t) ([2]; 60 mg/kg): 2040 ng·h/mL
- AUC(0-t) ([2]; 200 mg/kg): 13100 ng·h/mL
- Cmax ([2]; 200 mg/kg): 66.6 ng/mL
- Cmax ([2]; cynomolgus, 20 mg/kg): 6.27 ng/mL
- AUC(0-t) ([2]; cynomolgus, 60 mg/kg): 2190 ng·h/mL
- Cmax ([2]; cynomolgus, 60 mg/kg): 15.8 ng/mL
- AUC(0-t) ([2]; cynomolgus, 200 mg/kg): 12400 ng·h/mL
- Cmax ([2]; cynomolgus, 200 mg/kg): 71.3 ng/mL
- PD effects relative to abiraterone plasma concentration (CYP17A1; 10 mg/kg dosing group): prolonged PD effects were observed even after abiraterone plasma concentration dropped below 1 ng/mL
- progesterone, cortisol, dihydrotestosterone and testosterone levels (CYP17A1; single dose IM, all three doses): sustained increase of progesterone level and reduction of cortisol, dihydrotestosterone, and testosterone level
- duration of CYP17A1 inhibition (CYP17A1; single dose IM, all three doses (10, 30, 100 mg/kg)): ≥ 70 days
- DVS Max H2O uptake [3]: N/A-non-hygroscopic
- abiraterone in the plasma at Day 70 [4]: measurable
- circulating androgen levels (androstenedione and testosterone) (CYP17; [5]): potent reductions
- levels of progesterone and corticosterone (CYP17; [5]): increased
- sustained reduction of testosterone (CYP17; single intramuscular dose, last time point tested): ≥ 168 h
